Target: T1, Tyrosinase (Agaricus bisporus, UniProt O42713)
T1 sequence (O42713 whole entry): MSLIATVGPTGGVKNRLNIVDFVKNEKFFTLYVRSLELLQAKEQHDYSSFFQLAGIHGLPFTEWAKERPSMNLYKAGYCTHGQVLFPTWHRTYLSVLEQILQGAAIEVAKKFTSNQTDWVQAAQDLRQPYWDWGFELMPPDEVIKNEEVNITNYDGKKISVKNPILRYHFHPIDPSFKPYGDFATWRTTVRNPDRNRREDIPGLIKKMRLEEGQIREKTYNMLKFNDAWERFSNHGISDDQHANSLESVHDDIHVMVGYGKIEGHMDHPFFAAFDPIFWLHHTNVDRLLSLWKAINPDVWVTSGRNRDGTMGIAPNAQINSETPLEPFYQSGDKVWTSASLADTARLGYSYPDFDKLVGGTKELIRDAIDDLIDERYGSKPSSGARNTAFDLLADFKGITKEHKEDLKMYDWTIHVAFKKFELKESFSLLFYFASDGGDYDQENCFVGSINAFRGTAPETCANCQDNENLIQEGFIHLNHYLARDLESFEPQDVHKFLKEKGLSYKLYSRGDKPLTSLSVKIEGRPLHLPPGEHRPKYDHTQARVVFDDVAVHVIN
Description: Inhibition of mushroom tyrosinase using L-tyrosine as substrate measured after 30 mins

An IC50 of 250 µM was found for CCCCCCCCC(=O)N/C(=C\c1ccc(O)cc1)C(=O)O in this work.

An IC50 of 180 µM was found for O=C(O)/C(=C/c1ccc(O)cc1)NC(=O)c1ccccc1 in this work.

An IC50 of 65 µM was found for CC(=O)N/C(=C\c1ccc(O)cc1)C(=O)O in this work.

From ChEMBL document CHEMBL4480460, “Concise Modular Synthesis of Thalassotalic Acids A-C” (J Nat Prod, 2019)
